Earlier results, collected in patent US4661473A, “Renin inhibitors containing peptide isosteres” (Merck & Co., Inc., priority 1984, dated 1987).

System: hog renin
Conditions: after the injection of hog renin into nephrectomized rats; Gross et al. 1971

## Pepstatin
  blood pressure in vivo: reduce blood pressure in vivo
